Laboratory results: patent publication US12215085B2 (priority 2019, dated 2025)

What was measured:
rat = assay: Acute toxicity LD50, rat; settings: clinical daily dosage 8 mg/60 kg human/day, per kilogram body weight
Acute toxicity LD50, rat = settings: in vivo, po
[1] = Physical and chemical stability (XRPD, HPLC); assay type: physicochemical
Procedure: • (1) The physical and chemical stability evaluations were performed after Crystal Form A was placed in a closed condition at 80° C. for 24 hours. • (2) The physical and chemical stability evaluations were performed after Crystal Form A was placed in an open condition at 25° C./60% relative humidity and 40° C./75% relative humidity respectively for one week.
The physical and chemical stabilities of the samples were tested by XRPD and HPLC.

Wistar rats = assay: Long-term toxicity, 27 weeks, Wistar rats
From the text: 120 Wistar rats were used, 30 rats per group, wherein half of them were males and half were females. The administration route was ig administration, once per day, 6-day administration per week, and a 27-week test period.

normal anesthetized dogs = assay: General pharmacological indexes of normal anesthetized dog; assay type: in vivo; settings: 0.8, 1.6 and 3.2 mg/kg
From the text: Meanwhile, the influence of Crystal Form A of octahydroaminoacridine succinate on the general pharmacological indexes of the normal anesthetized dog was observed.

[2] = 24 hours equilibrium solubility in water; assay type: physicochemical; settings: thermodynamic from solid, room temperature, initial concentration about 100 mg/mL, read-out: 24 hours equilibrium solubility in H2O
Procedure: Step: 24 hours equilibrium solubility of the sample of Crystal Form A in water was tested at room temperature. In the experiment, after mixing the sample of crystal form with water to form a suspension (initial concentration was about 100 mg/mL), the stirring was carried out for 24 hours (1000 rpm) at room temperature, a supernatant obtained from the centrifugation was filtered and the solubility was measured, and the residual solid was subjected to the XRPD test.

[3] = Dynamic moisture sorption (DVS) hygroscopicity; assay type: physicochemical; settings: 25° C.; begins to significantly absorb water at 90% relative humidity
Procedure: In order to evaluate the stability of Crystal Form A under different humidity conditions, a dynamic moisture sorption (DVS) test was carried out on the sample of Crystal Form A under the constant temperature condition of 25° C.

[4] = system: rats with beta-amyloid induced senile dementia; assay: Step-down test, beta-amyloid induced senile dementia rats; assay type: in vivo, rat; settings: 2.8 mg/kg, P<0.05
[5] = system: rats with common carotid artery occlusion-induced vascular dementia; assay: Brain pathological examination, common carotid artery occlusion-induced vascular dementia rats; assay type: in vivo, rat; settings: 1.4 mg/kg and 2.8 mg/kg
[6] = system: rats with beta-amyloid induced senile dementia; assay: Brain pathological examination, beta-amyloid induced senile dementia rats; assay type: in vivo, rat

## Nc1c2c(nc3c1CCCC3)CCCC2.O=C(O)CCC(=O)O [Crystal Form A, 9-amino-1,2,3,4,5,6,7,8-octahydroacridine succinate]
rat
  LD50 as multiple of the clinical daily dosage: ~824.3 times
Acute toxicity LD50, rat
  LD50: 110 ± 9.1 mg/kg
[1]; 80° C. closed 24 hours, 25° C./60% relative humidity and 40° C./75% relative humidity open one week
  crystal form after storage (XRPD): unchanged
[1]; all three test conditions: 80° C. closed 24 hours, 25° C./60% RH and 40° C./75% RH open one week
  chemical purity after storage (HPLC): unchanged
Wistar rats; 27 weeks intragastric
  toxic target organ for long-term administration: could be the liver, but reversible
Wistar rats; high-dose group 30 mg/kg, 27 weeks
  animals died: 5 animals
Wistar rats; intragastric, 27 weeks
  non-toxic reaction dose: 15 mg/kg
Wistar rats; rat, in vivo
  body weight of male and female rats vs control group: obviously reduced
  electrocardiogram PR interval, QRS interval, QT interval, T wave, heart rate vs control group: no significant difference
  general and microscopic examination of all organs: No obvious pathological changes caused by the drug toxicity
  general state, behavioral activity, mental state, fur, urine and feces, food (water) intake: all normal
  hematology, blood biochemistry examination and each organ coefficient vs control group: no obvious difference
  rats with obvious elevation of the liver function index ALT: 2 rats
Normal anesthetized dogs
  respiratory frequency, respiratory amplitude, arterial blood pressure, heart rate and electrocardiogram: no obvious influence
[2]
  solubility thermodynamic at 24 h: 72.9 mg/mL
[3]
  DVS weight gain: up to 5.2%
[4]; Day 1 and Day 2
  step-down error number vs model group: obviously reduced
[4]; Day 2
  error latency vs model group: obviously prolonged
[5]
  pathological change of the common carotid artery occlusion-induced vascular dementia: could relieve the pathological change
[6]; high-dose group (2.8 mg/kg)
  pathological damage of cerebral cortex and hippocampus caused by beta-amyloid: could relieve the pathological damage
[6]; low and medium-dose groups (0.7 and 1.4 mg/kg)
  pathological changes of cortex and hippocampus compared with the model group: no obvious difference
